Kd data for 2 compounds are collected here from ChEMBL document CHEMBL4049403, “Oligo-aspartic acid conjugates with benzo[c][2,6]naphthyridine-8-carboxylic acid scaffold as picomolar inhibitors of CK2” (Bioorg Med Chem, 2017).

The test concerns the target Albumin (Bos taurus, UniProt P02769). Nature of the test: Binding affinity to bovine serum albumin by fluorescence anisotropy based method. In kind it is ADME. A general note: Fluorescence polarisation rises when a labelled molecule tumbles more slowly, as on binding a larger partner.

Where only a bound is given, the exact number is not on record here.

Chain of Albumin (P02769 whole entry): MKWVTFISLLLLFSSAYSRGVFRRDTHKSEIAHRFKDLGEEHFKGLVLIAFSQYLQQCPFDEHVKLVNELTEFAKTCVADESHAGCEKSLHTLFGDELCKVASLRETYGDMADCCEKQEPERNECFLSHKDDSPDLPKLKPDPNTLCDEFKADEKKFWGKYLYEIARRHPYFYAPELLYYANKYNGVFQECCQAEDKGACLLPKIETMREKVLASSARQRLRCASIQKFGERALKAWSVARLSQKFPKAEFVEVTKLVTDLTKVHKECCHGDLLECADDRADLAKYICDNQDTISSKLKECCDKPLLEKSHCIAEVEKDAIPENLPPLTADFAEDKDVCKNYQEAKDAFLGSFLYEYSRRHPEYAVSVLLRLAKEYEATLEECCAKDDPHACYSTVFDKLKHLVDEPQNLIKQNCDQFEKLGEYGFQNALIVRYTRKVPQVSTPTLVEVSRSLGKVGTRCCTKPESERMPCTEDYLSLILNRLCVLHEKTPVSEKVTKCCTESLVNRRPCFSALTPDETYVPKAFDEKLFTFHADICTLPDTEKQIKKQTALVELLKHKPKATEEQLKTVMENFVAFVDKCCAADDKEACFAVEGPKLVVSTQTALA

In the case of `CCN1c2cc(S(=O)(=O)O)ccc2\C(=C/C=C/C=C/C2=[N+](CC)c3ccc(S(=O)(=O)[O-])cc3C2(C)C)C1(C)CCCC(=O)NCCCC[C@H](NC(=O)[C@H](CC(=O)O)NC(=O)[C@H](CC(=O)O)NC(=O)[C@H](CC(=O)O)NC(=O)[C@H](CC(=O)O)NC(=O)[C@H](CC(=O)O)NC(=O)[C@H](CC(=O)O)NC(=O)CCCCCCCn1cnc2c(Br)c(Br)c(Br)c(Br)c21)C(=O)O` (some centres not stated), the Kd came to 1.7 µM. In other words, the single-digit micromolar range.

For the compound `CCN1c2cc(S(=O)(=O)O)ccc2\C(=C/C=C/C=C/C2=[N+](CC)c3ccc(S(=O)(=O)[O-])cc3C2(C)C)C1(C)CCCC(=O)NCCCC[C@H](NC(=O)CCCCCCCCOc1nc2cc(C(=O)O)ccc2c2cnccc12)C(=O)N[C@@H](CC(=O)O)C(=O)N[C@@H](CC(=O)O)C(=O)N[C@@H](CC(=O)O)C(=O)N[C@@H](CC(=O)O)C(=O)O` (some centres not stated), the Kd is more than 50 µM.

What is called Kd is the free concentration of one partner at which half of the binding sites on the other are occupied at equilibrium, for simple one-to-one binding.
